Source: patent publication US5304549A, “Amino acid derivatives” (Hoffmann-La Roche Inc., priority 1991, dated 1994)
Counter-ions that a name gives are not always drawn.

The molecules below were run against T1, collagenase obtained from a culture of human synovial fibroblasts (Homo sapiens, UniProt P03956) (assay: in vitro collagenase inhibiting activity (14C-acetylated collagen type I from rat tail tendons as substrate, microtitre plate assay)). Conditions: human synovial fibroblast collagenase, trypsin-activated; 14C-acetylated rat tail tendon collagen type I.
T1 construct: endogenous in cells; host or cells: human synovial fibroblasts in culture (conditioned medium)
T1 sequence (P03956 100-469): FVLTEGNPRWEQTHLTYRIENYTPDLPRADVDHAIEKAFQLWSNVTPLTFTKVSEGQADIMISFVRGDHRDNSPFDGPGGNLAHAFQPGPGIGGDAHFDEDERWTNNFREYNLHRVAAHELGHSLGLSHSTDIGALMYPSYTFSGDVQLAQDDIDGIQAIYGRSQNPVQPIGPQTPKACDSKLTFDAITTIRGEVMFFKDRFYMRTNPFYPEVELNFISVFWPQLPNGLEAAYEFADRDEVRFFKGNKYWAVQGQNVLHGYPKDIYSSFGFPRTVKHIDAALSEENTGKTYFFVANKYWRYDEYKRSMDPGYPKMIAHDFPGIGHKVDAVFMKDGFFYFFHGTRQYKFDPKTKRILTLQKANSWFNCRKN
Type: biochemical

Point of comparison: `CNC(=O)[C@@H](NC(=O)[C@@H](CC(=O)NO)CC(C)C)C(C)(C)C` [Compound A, N^2-[2(R)-[Hydroxycarbamoylmethyl]-4-methylvaleryl]-N^1,3-dimethyl-L-valinamide], IC50 4 nM. Against it:
- CNC(=O)[C@@H](NC(=O)C(CC(C)C)CP(=O)(O)CN1C(=O)c2cccc3c(O)c(Br)cc(c23)C1=O)C(C)(C)C (single isomer, unassigned) [Compound B, N^2-[2(R or S)-[[[(5-bromo-2,3-dihydro-6-hydroxy-1,3-dioxo-1H-benz[d,e]isoquinol-2-yl)methyl](hydroxy)phosphinyl]methyl]-4-methylvaleryl]-N^1,3-dimethyl-L-valinamide] — the same, 4 nM
- CNC(=O)C(NC(=O)C(CC(C)C)C(N)P(=O)(O)CN1C(=O)c2cccc3c(O)c(Br)cc(c23)C1=O)C(C)(C)C (single isomer, unassigned) [Compound C, N^2-[2-(R or S)-[[(R)-(amino)-[(5-bromo-2,3-dihydro-6-hydroxy-1,3-dioxo-1H-benz[d,e]isoquinol-2-yl)methyl](hydroxy)phosphinyl]methyl]-4-methylvaleryl]-N^1,3-dimethyl-L-valinamide hydrobromide] — 2.2-fold higher, 9 nM
- CNC(=O)[C@@H](NC(=O)[C@H](CC(C)C)C(CCCC(=O)OC)C(=O)NO)C(C)(C)C (single isomer, unassigned) [Compound F, N^2-[2(R)-[1(R or S)-(hydroxycarbamoyl)-4-(methoxycarbonyl)butyl]-4-methylvaleryl]-N^1,3-dimethyl-L-valinamide] — 4.4-fold lower, 0.9 nM
- CNC(=O)[C@@H](NC(=O)[C@H](CC(C)C)C(CCCc1ccccc1)C(=O)NO)C(C)(C)C (single isomer, unassigned) [Compound G, N^2-[2(R)-[1(R or S)-(hydroxycarbamoyl)-4-phenylbutyl]-4-methylvaleryl]-N^1,3-dimethyl-L-valinamide] — 2.1-fold lower, 1.9 nM
- CNC(=O)[C@@H](NC(=O)[C@H](CC(C)C)C(CN1C(=O)CCC1=O)C(=O)NO)C(C)(C)C (single isomer, unassigned) [Compound H, N^2-[2(R)-[1(R or S)-(hydroxycarbamoyl)-2-succinimidoethyl]-4-methylvaleryl]-N^1,3-dimethyl-L-valinamide] — 8-fold lower, 0.5 nM
- CNC(=O)[C@@H](NC(=O)C(CC(C)C)[C@H](C)C(=O)NO)C(C)(C)C (single isomer, unassigned; isomer 2) [Compound D, N^2-[2(R or S)-[1(S)-(hydroxycarbamoyl)ethyl]-4-methylvaleryl]-N^1,3-dimethyl-L-valinamide (isomer 2)] — 2-fold lower, 2 nM
